Test results taken from ChEMBL document CHEMBL3091330, “Discovery of 3,4-Dihydropyrimidin-2(1H)-ones As a Novel Class of Potent and Selective A2B Adenosine Receptor Antagonists” (ACS Med Chem Lett, 2013).

Key:
Adenosine receptor A2b = target: T1, Adenosine receptor A2b (Homo sapiens, UniProt P29275); assay: Displacement of [3H]DPCPX from human adenosine A2B receptor expressed in HEK293 cells after 30 mins by Scatchard plot analysis; type: cell-based
T1 sequence (P29275 whole entry): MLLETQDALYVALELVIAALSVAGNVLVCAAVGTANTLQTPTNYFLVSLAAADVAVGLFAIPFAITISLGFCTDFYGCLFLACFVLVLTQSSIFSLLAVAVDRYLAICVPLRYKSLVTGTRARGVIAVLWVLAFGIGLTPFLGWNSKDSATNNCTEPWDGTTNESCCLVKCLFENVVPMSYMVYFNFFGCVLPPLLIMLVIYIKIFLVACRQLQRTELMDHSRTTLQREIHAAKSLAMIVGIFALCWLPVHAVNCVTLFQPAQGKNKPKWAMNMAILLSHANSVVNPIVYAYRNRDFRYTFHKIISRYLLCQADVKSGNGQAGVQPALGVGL

[1] = target: T2, Adenosine receptor A3 (Homo sapiens) (UniProt P0DMS8); assay: Displacement of [3H]NECA from adenosine A3 receptor in human HeLa cells at 10 uM after 180 mins; type: cell-based
T2 sequence (whole entry): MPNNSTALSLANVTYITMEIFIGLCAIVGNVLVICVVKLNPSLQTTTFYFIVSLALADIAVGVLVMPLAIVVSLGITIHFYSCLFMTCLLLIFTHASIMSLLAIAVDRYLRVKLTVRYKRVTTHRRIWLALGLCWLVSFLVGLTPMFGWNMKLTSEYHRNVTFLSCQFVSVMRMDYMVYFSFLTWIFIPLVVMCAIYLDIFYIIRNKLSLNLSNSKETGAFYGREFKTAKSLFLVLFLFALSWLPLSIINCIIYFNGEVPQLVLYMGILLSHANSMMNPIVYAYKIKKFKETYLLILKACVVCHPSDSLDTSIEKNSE

Adenosine receptor A2a [2] = target: T3, Adenosine receptor A2a (Homo sapiens, UniProt P29274); assay: Displacement of [3H]ZM241385 from adenosine A2A receptor in human HeLa cells at 10 uM after 30 mins; type: cell-based
[3] = target: T4, Adenosine receptor A1 (Homo sapiens) (UniProt P30542); assay: Displacement of [3H]DPCPX from human adenosine A1 receptor expressed in CHO cells at 10 uM after 60 mins; type: cell-based
T4 sequence (whole entry): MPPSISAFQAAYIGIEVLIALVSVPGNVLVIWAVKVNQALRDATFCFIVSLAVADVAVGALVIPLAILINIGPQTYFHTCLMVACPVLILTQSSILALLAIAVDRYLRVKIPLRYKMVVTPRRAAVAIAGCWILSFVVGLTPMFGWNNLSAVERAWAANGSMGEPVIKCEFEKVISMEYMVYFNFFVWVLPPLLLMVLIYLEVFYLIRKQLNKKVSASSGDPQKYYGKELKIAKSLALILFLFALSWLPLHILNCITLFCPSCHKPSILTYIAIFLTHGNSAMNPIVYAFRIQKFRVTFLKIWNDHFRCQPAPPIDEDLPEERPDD

[4] = target: T5, Adenosine receptor A2b (Homo sapiens) (UniProt P29275); assay: Displacement of [3H]DPCPX from human from adenosine A2B receptor in HEK293 cells at 10 uM after 30 mins by Scatchard plot analysis; type: cell-based
T5 sequence (whole entry): T1 sequence (P29275 whole entry)

Cytochrome P450 1A2 = target: T6, Cytochrome P450 1A2 (Homo sapiens, UniProt P05177); assay: Inhibition of human recombinant CYP1A2 expressed in baculosomes at 100 fold Ki; type: ADME; conditions: recombinant enzyme
T6 sequence (P05177 whole entry): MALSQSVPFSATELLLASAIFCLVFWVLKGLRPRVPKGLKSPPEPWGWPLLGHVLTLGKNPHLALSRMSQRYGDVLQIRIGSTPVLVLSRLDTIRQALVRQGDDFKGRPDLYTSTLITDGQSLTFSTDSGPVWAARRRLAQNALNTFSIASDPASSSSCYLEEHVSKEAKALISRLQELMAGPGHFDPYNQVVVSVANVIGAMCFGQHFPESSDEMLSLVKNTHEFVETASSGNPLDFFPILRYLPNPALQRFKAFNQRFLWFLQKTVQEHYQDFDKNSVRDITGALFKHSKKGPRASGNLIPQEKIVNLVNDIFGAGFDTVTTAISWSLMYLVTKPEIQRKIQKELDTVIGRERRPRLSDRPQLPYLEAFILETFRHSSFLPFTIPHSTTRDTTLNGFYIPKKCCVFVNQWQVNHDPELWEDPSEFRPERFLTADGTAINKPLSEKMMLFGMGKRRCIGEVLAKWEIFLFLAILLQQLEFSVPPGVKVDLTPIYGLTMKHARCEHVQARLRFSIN

[5] = target: T5, Adenosine receptor A2b (Homo sapiens); assay: Antagonist activity at human adenosine A2B receptor expressed in HEK293 cells assessed as inhibition of NECA-stimulated cAMP accumulation incubated for 15 mins prior to NECA-challenge measured after 15 mins by spectrophotometry; type: functional, cell-based
Adenosine receptor A3 = target: T7, Adenosine receptor A3 (Homo sapiens, UniProt P0DMS8); assay: Displacement of [3H]NECA from adenosine A3 receptor in human HeLa cells after 180 mins; type: cell-based
T7 sequence (P0DMS8 whole entry): T2 sequence (whole entry)

Adenosine receptor A1 = target: T8, Adenosine receptor A1 (Homo sapiens, UniProt P30542); assay: Displacement of [3H]DPCPX from human adenosine A1 receptor expressed in CHO cells after 60 mins; type: cell-based
T8 sequence (P30542 whole entry): T4 sequence (whole entry)

Adenosine receptor A2a [6] = target: T3, Adenosine receptor A2a; assay: Displacement of [3H]ZM241385 from adenosine A2A receptor in human HeLa cells after 30 mins; type: cell-based
Cytochrome P450 3A4 = Cytochrome P450 3A4 (Homo sapiens, UniProt P08684); assay: Inhibition of human recombinant CYP3A4 expressed in baculosomes at 100 fold Ki; type: ADME; conditions: recombinant enzyme
Cytochrome P450 3A4, sequence (P08684 whole entry): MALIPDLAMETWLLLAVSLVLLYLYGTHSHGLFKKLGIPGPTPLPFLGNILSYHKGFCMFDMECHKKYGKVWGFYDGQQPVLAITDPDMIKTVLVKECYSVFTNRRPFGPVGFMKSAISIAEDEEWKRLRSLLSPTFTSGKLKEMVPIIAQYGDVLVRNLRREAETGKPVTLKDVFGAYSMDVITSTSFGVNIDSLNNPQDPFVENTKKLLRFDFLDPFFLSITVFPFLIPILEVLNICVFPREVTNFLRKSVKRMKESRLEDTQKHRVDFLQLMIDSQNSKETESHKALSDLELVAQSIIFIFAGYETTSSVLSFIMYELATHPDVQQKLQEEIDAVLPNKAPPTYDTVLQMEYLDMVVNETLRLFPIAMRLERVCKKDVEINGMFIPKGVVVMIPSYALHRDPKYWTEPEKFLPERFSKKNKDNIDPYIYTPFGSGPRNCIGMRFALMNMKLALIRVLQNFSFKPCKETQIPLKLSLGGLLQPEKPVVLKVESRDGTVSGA

T3 sequence (P29274 whole entry): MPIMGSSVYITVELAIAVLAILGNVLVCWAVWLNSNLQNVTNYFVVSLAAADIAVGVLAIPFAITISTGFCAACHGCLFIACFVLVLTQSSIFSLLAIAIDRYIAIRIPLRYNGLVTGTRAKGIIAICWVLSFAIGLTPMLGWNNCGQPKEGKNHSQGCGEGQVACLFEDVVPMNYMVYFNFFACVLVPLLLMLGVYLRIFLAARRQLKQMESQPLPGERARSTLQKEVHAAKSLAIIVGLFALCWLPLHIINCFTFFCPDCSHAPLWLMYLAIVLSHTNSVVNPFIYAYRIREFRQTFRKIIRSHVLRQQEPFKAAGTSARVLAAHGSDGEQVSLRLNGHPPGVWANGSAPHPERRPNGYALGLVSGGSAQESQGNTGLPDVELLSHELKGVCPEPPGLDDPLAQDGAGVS

Compound | Ki (Adenosine receptor A2b) | inhibition [1] | inhibition (Adenosine receptor A2a [2]) | inhibition [3] | inhibition [4] | inhibition (INH) (Cytochrome P450 1A2) | Kb [5] | Ki (Adenosine receptor A3) | Ki (Adenosine receptor A1) | Ki (Adenosine receptor A2a [6]) | inhibition (INH) (Cytochrome P450 3A4)
CC1=C(C(=O)OC(C)C)C(c2ccoc2)NC(=S)N1 (racemic) | 194 nM | 23% | 33% | 18% |  |  |  |  |  |  | 
CCOC(=O)C1=C(CC)NC(=O)NC1c1ccco1 (racemic) | 715 nM | 3% | 41% | 29% |  |  |  |  |  |  | 
CCOC(=O)C1=C(C(F)(F)F)NC(=O)NC1c1ccco1 (racemic) |  | 2% | 32% | 15% | 2% |  |  |  |  |  | 
CCOC(=O)C1=C(C)N(C)C(=O)NC1c1ccco1 (racemic) | 6540 nM | 25% | 5% | 17% |  |  |  |  |  |  | 
CCOC(=O)C1=C(c2ccccc2)NC(=O)NC1c1ccco1 (racemic) |  | 2% | 17% | 3% | 28% |  |  |  |  |  | 
CC1=C(C(=O)Nc2ccccc2)C(c2ccco2)NC(=O)N1 (racemic) |  | 5% | 7% | 24% | 31% |  |  |  |  |  | 
CC1=C(C(=O)OC(C)C)C(c2ccco2)NC(=S)N1 (racemic) | 10.2 nM | 4% | 18% | 15% |  | Not Active | 4.7 nM | > 10000 nM | > 10000 nM | > 10000 nM | Not Active
CC1=C(C(=O)OC(C)C)C(c2ccsc2)NC(=O)N1 (racemic) | 56.6 nM | 5% | 25% | 26% |  |  |  |  |  |  | 
CCCC1=C(C(=O)OCC)C(c2ccco2)NC(=O)N1 (racemic) | 256 nM | 19% |  | 50% |  |  |  |  |  | 602 nM | 
CCOC(=O)C1=C(C)NC(=O)NC1c1ccoc1 (racemic) | 39.6 nM | 1% | 24% | 21% |  |  |  |  |  |  | 
CCOC(=O)C1=C(C)NC(=O)NC1c1cccs1 (racemic) |  | 2% | 33% | 3% | 39% |  |  |  |  |  | 
CCOC(=O)C1=C(C)NC(=S)NC1c1ccoc1 (racemic) | 43.1 nM | 15% | 25% | 18% |  |  |  |  |  |  | 
CC1=C(C(=O)OC(C)C)C(c2ccco2)NC(=O)N1 (racemic) | 40.8 nM | 4% | 23% | 18% |  |  |  |  |  |  | 
COC(=O)C1=C(C)NC(=O)NC1c1ccco1 (racemic) | 2160 nM | 13% | 25% | 34% |  |  |  |  |  |  | 
CCOC(=O)C1=C(C)N(C)C(=O)NC1c1ccsc1 (racemic) | 2970 nM | 3% | 24% | 30% |  |  |  |  |  |  | 
CC1=C(C(=O)OC(C)C)C(c2ccsc2)NC(=O)N1C (racemic) | 1810 nM | 14% | 20% | 33% |  |  |  |  |  |  | 
CC1=C(C(=O)OC(C)C)C(c2cccs2)NC(S)=N1 (racemic) | 1570 nM | 20% | 15% | 23% |  |  |  |  |  |  | 
CC1=C(C(=O)OC(C)C)C(c2cccs2)NC(=O)N1 (racemic) |  | 14% | 19% | 37% | 44% |  |  |  |  |  | 

Compound | Ki (Adenosine receptor A2b) | inhibition [1] | inhibition (Adenosine receptor A2a [2]) | inhibition [3] | inhibition [4] | inhibition (INH) (Cytochrome P450 1A2) | Kb [5] | Ki (Adenosine receptor A3) | Ki (Adenosine receptor A1) | Ki (Adenosine receptor A2a [6]) | inhibition (INH) (Cytochrome P450 3A4)
CCOC(=O)C1=C(C)N(C)C(=O)NC1c1cccs1 (racemic) |  | 6% | 3% | 2% | 11% |  |  |  |  |  | 
CCOC(=O)C1=C(C)N(C)C(=O)NC1c1ccoc1 (racemic) | 4260 nM | 1% | 24% | 17% |  |  |  |  |  |  | 
CCOC(=O)C1=C(C)N=C(S)NC1c1ccsc1 (racemic) | 1100 nM | 2% | 28% | 23% |  |  |  |  |  |  | 
CC1=C(C(=O)OC(C)(C)C)C(c2ccco2)NC(=O)N1 (racemic) |  | 7% | 7% | 4% | 44% |  |  |  |  |  | 
CC(=O)C1=C(C)NC(=O)NC1c1ccco1 (racemic) |  | 14% | 21% | 30% | 38% |  |  |  |  |  | 
CC1=C(C(=O)OC(C)C)C(c2ccco2)NC(=O)N1C (racemic) | 1150 nM | 18% | 31% | 28% |  |  |  |  |  |  | 
CC1=C(C(=O)OC(C)C)C(c2ccoc2)NC(=O)N1 (racemic) | 1490 nM | 3% | 26% | 25% |  |  |  |  |  |  | 
CC1=C(C(=O)OC(C)C)C(c2cccs2)NC(=O)N1C (racemic) |  | 18% | 24% | 22% | 28% |  |  |  |  |  | 
CCOC(=O)C1=C(C)NC(=O)N(C(C)=O)C1c1ccco1 (racemic) | 3110 nM | 1% | 24% | 19% |  |  |  |  |  |  | 
CCOC(=O)c1c(-c2ccco2)nc(=O)[nH]c1C | 3430 nM | 15% | 11% | 6% |  |  |  |  |  |  | 
CCOC(=O)C1=C(C)N=C(S)NC1c1cccs1 (racemic) | 6250 nM | 4% | 23% | 2% |  |  |  |  |  |  | 
CC1=C(C(=O)OC(C)C)C(c2ccoc2)NC(=O)N1C (racemic) |  | 1% | 2% | 23% | 35% |  |  |  |  |  | 
CC1=C(C(N)=O)C(c2ccco2)NC(=O)N1 (racemic) |  | 2% | 1% | 2% | 2% |  |  |  |  |  | 
CCOC(=O)C1=C(C)N=C(S)NC1c1ccco1 (racemic) | 608 nM | 5% | 32% | 1% |  |  |  |  |  |  | 
CCCOC(=O)C1=C(C)NC(=O)NC1c1ccco1 (racemic) | 206 nM | 2% | 55% | 43% |  |  |  |  |  |  | 
CC1=C(C(=O)OC(C)C)C(c2ccsc2)NC(=S)N1 (racemic) | 416 nM | 3% | 20% | 16% |  |  |  |  |  |  | 
CCOC(=O)C1=C(C)NC(=O)NC1c1ccsc1 (racemic) | 23.6 nM | 11% | 34% | 16% |  | Not Active | 25.2 nM | > 10000 nM | > 10000 nM | > 10000 nM | Not Active
CCOC(=O)C1=C(C)NC(=O)NC1c1ccco1 (racemic) | 586 nM | 2% | 31% | 15% |  |  |  |  |  |  | 
